{
  "source": "patent US5459126A",
  "about": "“Method for decreasing calcium uptake by cells using selected polycations” (California Institute of Technology, priority 1993, dated 1995)",
  "format_in_all_cases": "cell-based",
  "key": {"mammalian cells": {"test_system": "mammalian cells", "experiment": "calcium uptake inhibition in cell culture, noxious stimulus not specified"}, "[1]": {"test_system": "neonatal rat cardiomyocytes", "experiment": "45Ca uptake by metabolically inhibited cardiomyocytes (iodoacetic acid + 2-deoxyglucose)", "details": "for inhibition of calcium uptake: iodoacetic acid and 2-deoxyglucose", "protocol": "(§1) Ca fluxes were measured by an on-line isotopic technique (13). The myocytes were cultured onto scintillant-containing discs which were mounted in a flow cell so that the cells were in direct contact with perfusate. The flow cell was placed between two opposing […] tubes. Cell-associated Ca was then recorded in counts per minute. ^45 Ca^2+ is a low energy beta-emitter. The radioactivity contained within the perfusate is counted with very low efficiency (<5%) whereas that within the cells is counted with an efficiency of 39%. In all of the examples the cells were initially perfused with non isotopic solution to remove any debris. Perfusion with ^45 Ca^2+ containing solution was then commenced at 10 ml/minute and continued until the cells were labelled to asymptote. This normally took 25-30 minutes. The flow cell was then drained and refilled with a solution containing hydrogen peroxide. The cells were then incubated for 60 minutes with continuous recording of ^45 Ca labeling (no flow) prior to washout with non-isotopic perfusate.\n(§2) At the end of each experiment the discs were removed from the flow cell, allowed to dry and the cells were scraped onto a pre-weighed piece of filter paper. This was placed in an oven (>100° C.) overnight and then weighed, permitting determination of the cellular dry weight. The specific activity of each isotopic solution was measured in a […] (Beckman Instruments) and cell-associated Ca was expressed in mmoles/kg dry cellular weight. The cell cultures were maintained at 37° C.\nExposure of neonatal rat cardiomycytes to 0.05 mM iodoacetic acid (IAA), as a glycolytic inhibitor, and 0.5 mM 2-deoxyglucose (2-DOG), as a non-metabolizable substrate, produces a graded depletion in intracellular ATP and induces a significant Ca leak. In the following example involving metabolic inhibition, these two compounds were included in the incubation medium. 2-DOG was added directly and IAA was added from a 1 M stock solution, dissolved in water. The concentration in the culture media was 0.5 mM for 2-DOG and 0.05 mM for IAA."}, "[2]": {"test_system": "neonatal rat cardiomyocytes", "experiment": "45Ca uptake by cultured cardiomyocytes exposed to hydrogen peroxide (free radical attack), on-line isotopic technique", "protocol": "Protamine is a strong polycationic polypeptide used extensively for heparin reversal after cardiopulmonary bypass. The drug is known to be negatively inotropic. The neonatal rat cardiomyocytes were cultured according to the procedure described by Frank et al.(13).\nas §1, with “This normally took 25-30 minutes.” left out\nAfter asymptotic labeling with ^45 Ca, the cells were perfused with a solution containing protamine sulfate at varying concentrations. […] The flow cell was then drained and refilled with a solution containing 50 μM H2 O2 and protamine. The procedure was repeated with protamine in varying concentrations: 1 μM (n=4); 5 μM (n=6) and 50 μM (n=6).\nas §2"}, "[3]": {"details": "calcium leak caused by hydrogen peroxide"}, "[4]": {"details": "calcium leak caused by metabolic inhibition"}},
  "note": "“Also recorded” adds a separate entry of the source.",
  "data": [
    {"compound": "Gentamicin", "values": [
      {"measurement": "amount required to obtain any significant level of calcium uptake inhibition", "setting": "mammalian cells", "value": 1.5, "unit": "mM"}
    ]},
    {"compound": "CCCCCCCCCCCC[N+](C)(C)C.[Br-]", "note": "[DDTMA, dodecyltrimethylammonium bromide]", "values": [
      {"measurement": "inhibition of calcium uptake", "setting": "[1]; 50 μM", "value": "significant inhibition of calcium uptake"}
    ]},
    {"compound": "polymyxin B sulfate [PXB]", "values": [
      {"measurement": "inhibition of calcium uptake", "setting": "[1]; 100 μM", "value": "substantially inhibited"}
    ]},
    {"compound": "hexamedronium bromide [Polybrene]", "values": [
      {"measurement": "inhibition of calcium leak", "setting": "[2]; [3]", "value": "inhibited the calcium leak"},
      {"measurement": "threshold concentration above which inhibition was significant", "setting": "[2]; [3]", "value": 25, "unit": "µM"},
      {"measurement": "effect on calcium uptake", "setting": "[2]; polybrene 25 μM, free radical attack (FIG. 4)", "value": "prevention of calcium uptake"},
      {"measurement": "inhibition of calcium leak", "setting": "[1]; [4]", "value": "inhibited the calcium leak"},
      {"measurement": "threshold concentration above which inhibition was significant", "setting": "[1]; [4]", "value": 25, "unit": "µM"},
      {"measurement": "effect on calcium uptake", "setting": "[1]; polybrene 25 μM, metabolically inhibited cells (FIG. 5)", "value": "prevention of calcium uptake"}
    ]},
    {"compound": "protamine", "values": [
      {"measurement": "effect on Ca overload", "setting": "[2]; protamine 1 μM, 50 μM H2O2, 60 min incubation", "value": "no effect"},
      {"measurement": "effect on Ca overload / calcium uptake", "setting": "[2]; protamine 5 μM, 50 μM H2O2, 60 min incubation", "value": "prevention of calcium uptake; also recorded: completely prevented the Ca overload"},
      {"measurement": "effect on Ca overload", "setting": "[2]; protamine concentration above 5 μM (50 μM tested), 50 μM H2O2", "value": "no additional effect"},
      {"measurement": "effect of protamine on Ca overload after neutralizing its positive charge with heparin", "setting": "[2]; protamine plus heparin, H2O2", "value": "completely inhibited"},
      {"measurement": "Ca uptake on perfusion with the agent alone", "setting": "[2]; protamine sulfate at varying concentrations, after asymptotic 45Ca labeling, before H2O2", "value": "did not significantly alter Ca uptake"},
      {"measurement": "effect on calcium uptake", "setting": "[1]; concentrations below 5 μM, 0.05 mM IAA + 0.5 mM 2-DOG", "value": "did not exert a significant effect"},
      {"measurement": "effect on calcium uptake", "setting": "[1]; concentrations of 5 μM and higher, 0.05 mM IAA + 0.5 mM 2-DOG", "value": "prevention of calcium uptake; also recorded: dramatic drop in calcium uptake"},
      {"measurement": "effect on calcium overload", "setting": "mammalian cells; cell culture concentrations of 5 μM and above", "value": "completely prevent calcium overload"}
    ]}
  ]
}
